From patent US5481043A, “Phenone compounds, manufacturing method and pharmaceutical preparations containing them” (priority 1991, dated 1996)

Tests used:
[1] = test system: human peripheral leukocytes; test: Inhibition of histamine release from human peripheral leukocytes; format: cell-based; settings: for inhibition at 0.1 µg/mL / inhibition at 1 µg/mL / inhibition at 10 µg/mL / inhibition at 100 µg/mL: Homo sapiens, Leukocyte; for inhibition at 0.1 µg/mL: 0.0001 mg/ml; for inhibition at 1 µg/mL: 0.001 mg/ml; for inhibition at 10 µg/mL: 0.01 mg/ml; for inhibition at 100 µg/mL: 0.1 mg/ml
Method: Venous blood was withdrawn from atopic donors and the peripheral leukocytes were obtained by means of dextran sedimentation. The purified cells were preincubated with three or four different concentrations of the substance to be tested and with the solvent alone. After 10 minutes, rabbit antihuman IgE antibodies, plasma containing anaphylatoxin (C5a) according to Vallota and Muller-Eberhard, calcium ionophore or saline solution were added to the cells. 30 minutes later, the reaction was stopped and the histamine concentration was measured in the […] by means of spectrofluorometry.
The results are shown in table 1 with the inhibition of the histamine release shown in percent of the maximal release by perchloric acid, corrected by the spontaneous release without stimulation.

[2] = test system: allergic bronchial asthma (ovalbumin inhalation); test: Asthma-protective action in guinea pigs: allergic (ovalbumin-induced) bronchial asthma (inhalation, dual-chamber body plethysmograph); format: in vivo, guinea pig
Method: (§1) b) Asthma-protective action of the acetophenone compound in guinea pigs.
(§2) Male white "Pirbright" guinea pigs were sensitized to ovalbumin by means of the well-known methods. Inhalation experiments were conducted 4 to 6 weeks later.
(§3) Spontaneously breathing animals were placed in a dual-chamber body plethysmograph in which the two chambers were separated around the head of the animals by a rubber collar filled with water. Changes in volume in the two chambers were measured by means of pressure transfer systems. The degree of bronchial obstruction was determined by means of the parameter, "compressed air". This technique is ten times more sensitive than other invasive methods (Dorsch et al., Pflugers Arch., 1981, 391: 236 to 241).
(§4) Groups of 10 to 14 animals were divided into two sub-groups and either treated with the test substance or with a solution. Three or four days later the experiments were repeated with those animals which had previously been given the control being given the test substance and vice-versa (each animal was once given either the test substance or the solvent).
Ovalbumin, histamine and acetylcholine were dissolved in saline solution; PAF was first dissolved in ethanol and then in saline solution containing 0.25% of bovine serum albumin to a final concentration of 1 μg PAF per ml. […]

[3] = test system: PAF-induced bronchial asthma; test: Asthma-protective action in guinea pigs: PAF-induced bronchial asthma (inhalation, dual-chamber body plethysmograph); format: in vivo, guinea pig; settings: for effects on PAF-induced and allergic reactions compared with androsin (in words): PAF-induced and allergic (ovalbumin) reactions
Method: as §1, §2, §3, §4
Ovalbumin, histamine and acetylcholine were dissolved in saline solution; PAF was first dissolved in ethanol and then in saline solution containing 0.25% of bovine serum albumin to a final concentration of 1 μg PAF per ml. Ovalbumin, PAF, histamine and acetylcholine were administered in the form of an aerosol produced by ultrasound.
The effect of the test substance on the PAF-induced hyperreactivity was studied by means of successive inhalation of histamine, PAF and histamine. One group of animals was divided into two sub-groups with both sub-groups inhaling histamine in a dose leading to moderate bronchial obstruction. One hour later, one group was given the substance to be tested and the other group was given the solvent alone. Both groups were induced later by the successive inhalation of PAF and histamine. First 1 μg of PAF and 60 minutes later the same dose of histamine as before was given. The second contact with histamine in control animals usually leads to asthmatic reactions which are three times as great as after the first contact, […]

[4] = A 12387 (calcium ionophore) stimulus
[5] = oral dose of 10 mg/kg body weight

| Structure (SMILES) | inhibition at 0.1 µg/mL [1, 4] [%] | inhibition at 1 µg/mL [1, 4] [%] | inhibition at 10 µg/mL [1, 4] [%] | inhibition at 100 µg/mL [1, 4] [%] | inhibition at 0.1 µg/mL ([1]; C5a stimulus) [%] | inhibition at 1 µg/mL ([1]; C5a stimulus) [%] | inhibition at 10 µg/mL ([1]; C5a stimulus) [%] | inhibition at 100 µg/mL ([1]; C5a stimulus) [%] | inhibition at 0.1 µg/mL ([1]; α-IgE stimulus) [%] | inhibition at 1 µg/mL ([1]; α-IgE stimulus) [%] | inhibition at 10 µg/mL ([1]; α-IgE stimulus) [%] | inhibition at 100 µg/mL ([1]; α-IgE stimulus) [%] | inhibition of histamine release in vitro (in words) ([1]; in vitro experiment of table 1) | reduction of allergic reactions ([2]; aerosol, 0.5 mg/animal) [%] | reduction of allergic bronchial asthma in vivo [2, 5] [%] | reduction of PAF-induced reactions ([3]; aerosol, 0.5 mg/animal) [%] | reduction of PAF-induced bronchial asthma in vivo [3, 5] [%] | effects on PAF-induced and allergic reactions compared with androsin (in words) [3] |
| --- | --- | --- | --- | --- | --- | --- | --- | --- | --- | --- | --- | --- | --- | --- | --- | --- | --- | --- |
| COc1cc(C(C)=O)ccc1O[C@@H]1O[C@H](CO)[C@@H](O)[C@H](O)[C@H]1O [Androsin, androsin] | -3.6 | -0.4 | -14.9 | -12.5 | -5.4 | -4.5 | 3.7 | -4.3 | 2.8 | 0.5 | 5.5 | 10.9 | not effective | 67 | 67 | 72 | 72 | – |
| COc1cc(C(C)=O)ccc1O [apocynin] | – | – | – | – | – | – | – | – | – | – | – | – | – | – | – | – | – | Essentially, the same effects are achieved |
| COc1ccc(C(=O)CO)c(OC)c1 [2,4-dimethoxy-2-hydroxyacetophenone] | – | – | – | – | – | – | – | – | – | – | – | – | – | – | – | – | – | Essentially, the same effects are achieved |
